{"source": "patent US9801873B2", "about": "“Methods for treating humans having brain cancer” (priority 2008, dated 2017)", "key": {"A2780 ovarian tumors": {"system": "A2780 ovarian tumors", "settings": "for activity in A2780 ovarian tumor model: 3 weekly intra-peritoneal administrations; for tumor growth delay (TGD): 3 weekly intravenous injections", "method": "Anti-tumor efficacy was evaluated based on tumor growth delay (TGD) in mice and response rate in mice and humans.\nAnimals were weighed and monitored twice weekly, and tumor volumes were measured until an endpoint was met (2000 mm^3 or 60 days). Anti-tumor efficacy was evaluated based on tumor growth delay and response rate or partial or complete regression (PR or CR). In a PR, the tumor volume was 50% or less of its Day 1 volume for three consecutive measurements, and equal to or greater than 14 mm^3 for one or more of these three measurements. In a CR, the tumor volume was less than 14 mm^3 for three consecutive measurements. An animal with a CR response at termination was additionally classified as tumor-free survivior (TFS). A Student's T-test was performed to calculate statistical significance (p<0.05)."}, "[1]": {"assay": "Phase 1 trial: plasma pharmacokinetics by LC-MS/MS and population PK model (SN-38 exposure and half-life)", "settings": "plasma analyte after administration of Compound I", "protocol": "Tumor responses were evaluated according to RECIST (Response Evaluation Criteria in Solid Tumors) criteria."}, "[2]": {"settings": "cited from earlier work"}}, "note": "Read-outs that look alike come from different tables or passages of the source.", "data": [{"smiles": "N.N.O=C([O-])C1(C(=O)[O-])CCC1.[Pt+2]", "note": "[carboplatin]", "values": [{"measurement": "activity in A2780 ovarian tumor model", "setting": "A2780 ovarian tumors", "result": "inactive"}]}, {"smiles": "CCc1c2c(nc3ccc(O)cc13)-c1cc3c(c(=O)n1C2)COC(=O)[C@]3(O)CC", "note": "[SN-38, 7-ethyl-10-hydroxy camptothecin]", "values": [{"measurement": "T1/2 λz, In Responding Patients (range)", "setting": "[1]", "result": "14.4 to 98.3", "unit": "days"}, {"measurement": "T1/2 λz, Population Estimate in Responding Patients", "setting": "[1]", "result": 49.1, "unit": "days"}]}, {"smiles": "N.N.[Cl][Pt][Cl]", "note": "[cisplatin]", "values": [{"measurement": "activity in A2780 ovarian tumor model", "setting": "A2780 ovarian tumors", "result": "inactive"}]}, {"smiles": "CCc1c2c(nc3ccc(OC(=O)N4CCC(N5CCCCC5)CC4)cc13)-c1cc3c(c(=O)n1C2)COC(=O)[C@]3(O)CC", "note": "[irinotecan]", "values": [{"measurement": "tumor growth delay (TGD)", "setting": "A2780 ovarian tumors; 50 mg/kg", "result": 12, "unit": "days"}, {"measurement": "tumor growth delay (TGD)", "setting": "A2780 ovarian tumors; 100 mg/kg", "result": 15, "unit": "days"}, {"measurement": "tumor growth delay (TGD)", "setting": "A2780 ovarian tumors; 150 mg/kg", "result": 16, "unit": "days"}, {"measurement": "tolerability in mice", "setting": "A2780 ovarian tumors; 3 weekly intravenous doses of 50, 100, or 150 mg/kg", "result": "acute effects immediately after dosing (tremors, hypoactivity, ataxia, pilo-erection, increased stool production)"}, {"measurement": "partial responses (PR)", "setting": "A2780 ovarian tumors; highest dose (150 mg/kg), n=10", "result": "one partial response (PR)"}, {"measurement": "SN-38 plasma levels", "setting": "[2]; higher doses (2.8, 4.6 mg/m^2 per day), dosing period of 63 days", "result": "2 to 4", "unit": "ng/mL"}, {"measurement": "SN-38 plasma levels", "setting": "[2]; lowest dose (1.4 mg/m^2 per day continuous iv infusion), up to 63 days", "result": "around 1 ng/ml"}]}]}
